Source: US20160194274A1, “PHENANTHRENE DERIVATIVES FOR USE AS MEDICAMENTS” (VALENTIA BIOPHARMA, priority 2012, published 2016)
Like-named read-outs stand apart in the source and are kept apart here.

Assays:
[1] = test system: ribonuclear foci in MyoD transformed fibroblasts derived from DM1 patients (>300 CTG repeats); assay: FISH detection of aberrant ribonuclear foci in human DM1 fibroblasts; format: cell-based; details: 24 h treatment, vs no treatment
Protocol: FIG. 1. Quantification of aberrant ribonuclear foci (DM1 disease hallmark) in human DM1 fibroblasts. Treatments with the compounds of Formula I were performed (VLT002, VLT015, VLT025, VLT024, VLT042, VLT040, VLT023, VLT026, VLT048, VLT045, VLT043, VLT049, VLT051 VLT053 and VLT056). (A) Number (medium) of foci/nuclei (No treatment vs. compound treatment). (B) Number of cells without foci (No treatment vs. compound treatment). n=100 minimum number of cells counted. T-Student test: * indicates p-value <0.05 ** p-value p<0.005 *** p-value p<0.0005.
After screening identification of the compounds of the invention (see FIG. 10), main validation was done using Fluorescence In Situ Hybridization (FISH) detection of aberrant aggregation of ribonuclear foci in cell lines from DM1 patients (see FIG. 1) and in DM1 Drosophila model (see FIG. 2) (Garcia-Lopez et al., Proc. Natl. Acad. Sci. USA. 108(29):11866-71 (2011)). Briefly, regarding human cells, it was used MyoD transformed fibroblasts derived from clinically diagnosed DM1 patients (>300 CTG repeats) routinely growing in DMEM supplemented with 10% heat-inactivated fetal bovine serum and maintained at 37° C. in a humidified incubator containing 5% CO2. To detect ribonuclear foci, cells were cultured over cover-slides in flat bottomed 24-well plates, after 24 h compounds of the invention were added to the cells at desiderate concentration, 24 h later in situ hybridization was done by fixing with 4% paraformaldehyde (PFA) 15 min at room temperature, and washed and stored in 70% ethanol. Cells were rehydrated with PBS and pre-hybridized 10 min at room temperature with a pre-hybridization buffer (formamide 30%, 2× saline-sodium citrate buffer (SSC)). Hybridization was performed in a light-proof wet chamber using the same pre-hybridization buffer supplemented with 0.02% bovine serum albumin (BSA), 1 mg/ml yeast tRNA (Sigma), 2 mM sodium (meta)vanadate, 1 mg/ml sperm DNA, 10% dextran sulfate and 1 ng/μl RNase free HPCL-purified Cy3-labeled (CAG)10 RNA. After hybridization cells were washed 2×15 minutes at 45° C. with the pre-hybridization buffer and washed with 1×PBS at room temperature. Slides were mounted with Vectashield solution with DAPI and number of foci by cell and number of cells with/without foci (see FIG. 1) were counted in a minimum of 100 cells for each treatment and concentration tested with a 63× objective in a Leica microscope. Same FISH approach was performed in Drosophila DM1 flies, where thoraces were embedded in OCT and transversal sections were taken with a Leica CM 15105 cryomicrotome. Sections were processed for in situ hybridization and counting for number of foci by cell with the same Cy3-labeled (CAG)10 probe (see FIG. 2).

(CUG)23 RNA hairpin = assay: 2-Aminopurine fluorescence assay of hairpin RNA unfolding; format: biochemical; details: (CUG)23 RNA, dose-range
Protocol: FIG. 7. […] Measurements of the fluorescence emitted (Y-axis), measured as relative fluorescence units (RFU), by 2-aminopurine in a (CUG)23 RNA (1 μM) in the presence of different compounds (dose-range approach), relative to the fluorescence emitted by the free RNA. […] These effects were not observed when incubating the RNA with DMSO (not shown), or with the small molecule pentamidine, published as a compound able to disrupt MBNL1 binding to CUG hairpins (Warf M B et al. Proc. Natl. Acad. Sci. USA 106:18551-56 (2009)). * indicates p-value <0.05 ** p-value <0.005 *** p-value p<0.0005.
Aminopurine Fluorescence assay to detect hairpin double strand RNA unfolding. An aliquot of 2-aminopurine (2AP)-CUG23 RNA (1 μM in binding buffer) was heated at 90° C. for 3 min, placed on ice, and further diluted to 30 nM in a final volume of 1 mL in binding buffer.

[2] = test system: indirect flight muscles of MHC-Gal4/+; UAS-i480CTGs/+ flies; assay: Drosophila muscle histology (IFM muscle area); format: in vivo; details: 100 μM, adult IFM
Protocol: FIG. 3. Representative bright field microscopy images of transversal sections of resin-embedded adult IFM (indirect flight muscles) of MHC-Gal4/+; UAS-i480CTGs/+ flies that had been treated with DMSO (left) or with VLT024 (100 μM) (right).
Additional assays involved: • Reverse Transcription-PCR (RT-PCR) to detect levels of normal/aberrant splicing events in specific genes. This approach was performed in human cells from patients (see FIG. 5) or from DM1 mouse (see FIG. 8 up) (HSA^LR, Mankodi A et al., Science, 289:1769-1773 (2000)) tissues (skeletal muscle), from which total RNA was extracted from ˜0.5-1.5×10^5 cells using the Zygem Tissue Plus kit. Serca 1, Cypher or cTNNT genes reverse transcription were performed and quantification of normal/aberrant spliced band forms was obtained (ImageJ software) after running PCR products in 2% agarose gels. As shown in FIGS. 5 and 8 compounds of the invention are able to recover disease phenotypes. • Drosophila Muscle Histology, where five-day old Drosophila thoraces were embedded in Epon for transversal, semi-thin sectioning. Muscle area was quantified (see FIG. 3) by binarizing images (equal dimensions) and quantifying pixels (%) within muscle tissue with ImageJ software. […] A minimum of 8 flies were analyzed in each case.

FAM-(CUG)10 RNA = assay: Gel retardation assay (fluorescence EMSA) with FAM-(CUG)10; format: binding
Protocol: FIG. 6. Study of the binding of some compounds of Formula I (VLT002, VLT025 and VLT026) to FAM-(CUG)10 (repeat tract present in DM1, HDL2, SCA8 diseases) by means of gel retardation assays.
Fluorescence Electrophoretic Mobility Shift Assay to test RNA-compound binding. Briefly, an aliquot of carboxyfluorescein (FAM)-CUG10 RNA (DM1, HDL2, SCA8; see FIG. 6) was heated at 70° C. for 5 min and diluted to 300 nM. The binding reaction with compounds was then carried out as described in (Garcia-Lopez A et al. Proc. Natl. Acad. Sci. USA. 108(29):11866-71 (2011)). The reaction mix was loaded onto 8% polyacrylamide nondenaturing gels, and electrophoresis was conducted at 4° C. in TB 1× for approximately 30 min at 240V, followed by fluorescence visualization. Quantification of the free RNA band intensity was carried out using the ImageJ software. A non-linear regression analysis was used to calculate EC50, based on a total of three experimental replicates. Same approach was developed with (FAM)-CCUG8 (DM2), CAG10 (SCA3), CGG10 (FXTAS), GGGGCC5 (ALS/FSD), UGGAA6 (SCA31) probes (see FIG. 9).

MBNL1 = assay: Visualization and quantification of MBNL1 release in DM1 fibroblasts; format: cell-based, human; details: 100 μM
Protocol: FIG. 4. Visualization and quantification of MBNL1 release (A). Visualization of MBNL1 release for VLT002: Upper row: Untreated DM1 fibroblasts with MBNL1 localizing as ribonuclear foci (see dots in middle and right pictures) to the nucleus (DAPI, detected as gray spherical shadow in left and right pictures). […] (B) Quantification of the area (into the nucleus), where MBNL1 present (Photoshop software), reflects the MBNL1 release after VLT002, VLT025, VLT045, VLT049 and VLT040 treatment (100 μM).
At the same time human cells were recollected for foci counting. Some (150,000-300,000) were prepared for Muscleblind (MBNL1) detection (see FIG. 4). After PBS washes, cells were probed overnight, at 4° C. with anti-MBNL1 antibody (1:5000 dilutions, A2764 antibody) in 1×PBS. After washing cells with 1×PBS, cells were incubated with goat anti-rabbit Alexa 488 (1:500 dilution) for 2 h at RT. Cells were washed 2 times, for 10 min at room temperature with 1×PBS and then mounted onto glass slides using a hard-set mounting media that contains DAPI (Vectashield). Cells were imaged on a Leica microscope.

[3] = cited from earlier work
[4] = dose range of 5-40 mg/kg, compared to mexiletine

SMILES | aberrant ribonuclear foci: number of foci/nuclei (A) and/or number of cells without foci (B) [1] | other results
COc1cc2c(cc1O)CC1c3c(cc(O)c(OC)c3-2)CCN1C (stereo not drawn) [VLT015] | significant reduction | 
COc1cc(CCN(C)C)c2ccc3c(c2c1OC)=CC(OC)C(OC)C=3 (stereo not drawn) [VLT023] | significant reduction | modification of the hairpin loops formed by the CUG repeats (2-AP fluorescence) ((CUG)23 RNA hairpin): modify the hairpin loops
COc1cc2ccc3c(CC[N+](C)(C)C)cc(OC)c(OC)c3c2cc1OC [VLT024] | significant reduction | muscle area relative to DMSO-treated flies [2]: significant increase
COc1cc2c(ccc3c(CCN(C)Cc4ccccc4)cc(OCc4ccccc4)c(OC)c32)cc1OCc1ccccc1 [VLT026] | significant reduction | binding to FAM-CUG10 (FAM-(CUG)10 RNA): bind to FAM-CUG10
C[N+]1(C)CCc2cc3c(c4c2c1cc1ccccc14)OCO3 [VLT042] | significant reduction | 
CC(=O)N1CCc2cc3c(c4c2C1Cc1ccccc1-4)OCO3 (stereo not drawn) [VLT043] | significant reduction | 
O=C1c2ccccc2-c2c3c(cc4ccnc1c24)OCO3 [VLT045] | significant reduction | MBNL1 sequestration / MBNL1 release (nuclear area where MBNL1 present) (MBNL1): relieve MBNL1 sequestration; formation of foci (MBNL1 ribonuclear foci) (MBNL1): effectively reduce the formation of foci
CCNC(=O)Oc1cc2c(cc1OC)-c1c(OC)c(OC(=O)NCC)cc3c1C(C2)N(C)CC3 (stereo not drawn) [VLT048] | significant reduction | 
COc1cc2c3c(c1OC)-c1ccccc1CC3N(C)CC2 (stereo not drawn) [VLT049] | significant reduction | MBNL1 sequestration / MBNL1 release (nuclear area where MBNL1 present) (MBNL1): relieve MBNL1 sequestration; formation of foci (MBNL1 ribonuclear foci) (MBNL1): effectively reduce the formation of foci
COc1cc(CC[N+](C)(C)C)c2ccc3ccccc3c2c1OC [VLT051] | significant reduction | 
C[N+](C)(C)CCc1cc(O)c(O)c2c1ccc1ccccc12 [VLT053] | significant reduction | 
CC(=O)Oc1cc2ccc3c(CCN(C)C)cc(OC(C)=O)c(OC(C)=O)c3c2cc1OC(C)=O [VLT056] | significant reduction | 
CC(C)(C)NCC(O)c1cc(Cl)c(N)c(Cl)c1 (stereo not drawn) [clenbuterol] |  | antimyotonic effect [3, 4]: time-dependent antimyotonic effect
CC(C)(C)NCC(O)COc1cccc2c1CC(O)C(O)C2 (stereo not drawn) [nadolol] |  | antimyotonic effect ([3]; in vivo): did not show any significant antimyotonic effect
N=C(N)c1ccc(OCCCCCOc2ccc(C(=N)N)cc2)cc1 [pentamidine, reference compound] |  | modification of the hairpin loops formed by the CUG repeats (2-AP fluorescence) ((CUG)23 RNA hairpin): not observed
CC(C)NCC(O)COc1cccc2ccccc12 (stereo not drawn) [propranolol] |  | antimyotonic effect [3, 4]: time-dependent antimyotonic effect
CC(C)(C)NCC(O)c1ccc(O)c(CO)c1 (stereo not drawn) [salbutamol] |  | antimyotonic effect ([3]; in vivo): did not show any significant antimyotonic effect
